Usually EC90 stands for the point of the concentration-response curve where the effect stands at 90%.

Where only a bound is given, the exact number is not on record here.

Data set [1] relates to Respiratory syncytial virus (RSV) type A, strain A2 (ATCC VR-1540). Put plainly: dNHBE assay: RSV virus yield reduction (EC90). The format is cell-based. The settings on record: human respiratory syncytial virus, RSV (A2) in dNHBE cells; concentration reducing virus yield by 1 log10; mean of at least two experiments. Here is the method: (§1) Differentiated normal human bronchial epithelial (dNHBE) cells were grown on 6 mm mesh disks in transwell inserts to approximately 1.2×10^6 cells/disk and disks were transferred to individual wells of a 6-well plate. 1 mL of proprietary culture medium was added to the basolateral side of the cells and the apical side was exposed to a humidified 95% air/5% CO2 environment. Cells were cultured at 37° C. for one day and then the mucin layer was removed from the apical side of the cells by repeated (3×) washing with 500 μL 30 mM HEPES buffered saline solution and culture medium on the basal side was replenished.
Respiratory syncytial virus (RSV) type A, strain A2 (ATCC VR-1540), previously passaged in MA-104 cells to make working stock cultures, was diluted 1/10 in medium before infection, using a multiplicity of infection (MOI) of ≤0.03 CCID50 per cell.
(§2) Various concentrations of test compounds in medium were applied in duplicate to the apical (140 μL) and basal sides (1 mL) for a 1 hour pre-treatment, followed by addition of 140 μL of virus inoculum to each cell insert on the apical side. The viral inoculum and treatments were removed after 2 hours. Control cells were treated with placebo (culture medium only). Following infection, the apical medium was removed and the basal side was replaced with fresh compound in medium. The cells were maintained at the air-liquid interface, and cell culture medium on the basal side was replaced daily with fresh medium containing test compound. After 4 days, the liquid was removed from the basal side and discarded and virus released into the apical compartment was harvested by the addition of 500 μL of culture medium. The medium was thoroughly mixed, then removed, diluted 1:1 with 40% sucrose and stored at ≤−80° C.
To determine the virus titer from each treated cell culture, MA-104 cells were seeded in 96-well plates and grown overnight (37° C.) to confluence. Samples containing virus were diluted in 10-fold increments in infection medium and 200 μL of each dilution transferred into respective wells of a 96-well microtiter plate. Four microwells were used for each dilution to determine 50% viral endpoints. After 7 days of incubation, each well was scored positive for virus if any cytopathic effect was observed as compared with the uninfected control. The virus dose that was able to infect 50% of the cell cultures (CCID50 per 0.1 mL) was calculated by the Reed-Muench method. This was repeated in duplicate for each test sample, so that values reported are an average of 2 independent CCID5o determinations. Untreated, uninfected cell controls were tested as negative controls. Statistical differences in the titers were evaluated with a one-way analysis of variance (ANOVA) followed by Dunnett's multiple comparisons test compared with the untreated virus controls.
(§3) Concentrations of test compounds that reduced virus yield by 1 log10 (90% effective concentration; EC90) were calculated by regression analysis. The reported EC90 value is the mean of at least two experiments. Potential toxicity of the test compounds was evaluated microscopically.

Data set [2] relates to Differentiated normal human bronchial epithelial (dNHBE) cells. Description: dNHBE assay: toxicity evaluated microscopically. In kind it is cell-based. Also noted: unit not given here. As for the experimental part:
as §1, §2, §3

With `CC(C)OC(=O)[C@H](C)N[P@](=O)(OC[C@@]1(C)O[C@@H](n2cnc3c(N(C)C)nc(N)nc32)[C@H](F)[C@@H]1O)Oc1ccccc1` [AA], in data set [1], the EC90 was 3500 nM. The Visual toxicity in data set [2] is given as more than 167.
The matching figures for `COc1nc(N(C)C)c2ncn([C@@H]3O[C@](C)(CO[P@@](=O)(N[C@@H](C)C(=O)OC(C)C)Oc4ccccc4)[C@@H](O)[C@H]3F)c2n1` [AF, (S)-Isopropyl 2-(((S)-(((2R,3R,4R,5R)-5-(6-(dimethylamino)-2-methoxy-9H-purin-9-yl)-4-fluoro-3-hydroxy-2-methyltetrahydrofuran-2-yl)methoxy)(phenoxy)phosphoryl)amino) propanoate]: 180 nM and more than 16.
As to `CC(C)OC(=O)[C@H](C)N[P@](=O)(OC[C@@]1(CCl)O[C@@H](n2cnc3c(N(C)C)nc(N)nc32)[C@H](F)[C@@H]1O)Oc1ccccc1` [AG, (S)-Isopropyl 2-(((S)-(((2R,3R,4R,5R)-5-(2-amino-6-(dimethylamino)-9H-purin-9-yl)-2-(chloromethyl)-4-fluoro-3-hydroxytetrahydrofuran-2-yl)methoxy)(phenoxy)phosphoryl)amino) propanoate], the EC90 in data set [1] is less than 160 nM. In data set [2], this molecule had a Visual toxicity of more than 15.
Taken in the same sequence, the figures for `CNc1nc(F)nc2c1ncn2[C@@H]1O[C@](CCl)(CO[P@@](=O)(N[C@@H](C)C(=O)OC(C)C)Oc2ccccc2)[C@@H](O)[C@H]1F` [AJ, (S)-Isopropyl 2-(((S)-(((2R,3R,4R,5R)-5-(6-(methylamino)-2-fluoro-9H-purin-9-yl)-2-(chloromethyl)-4-fluoro-3-hydroxytetrahydrofuran-2-yl)methoxy)(phenoxy)phosphoryl)amino) propanoate] were more than 1600 nM and more than 1.6.
In the case of `CNc1nc(N)nc2c1ncn2[C@@H]1O[C@](C)(CO[P@@](=O)(N[C@@H](C)C(=O)OC(C)C)Oc2ccccc2)[C@@H](O)[C@@H]1F` [AK, (S)-Isopropyl 2-(((S)-(((2R,3R,4S,5R)-5-(2-amino-6-(methylamino)-9H-purin-9-yl)-4-fluoro-3-hydroxy-2-methyltetrahydrofuran-2-yl)methoxy)(phenoxy)phosphoryl)amino) propanoate], in data set [1], the EC90 was 1100 nM. In data set [2], the Visual toxicity is given as more than 1.7.
The molecule `CNc1nc(N)nc2c1ncn2[C@@H]1O[C@](CCl)(CO[P@@](=O)(N[C@@H](C)C(=O)OC(C)C)Oc2ccccc2)[C@@H](O)[C@@H]1F` [AL, (S)-Isopropyl 2-(((S)-(((2R,3R,4S,5R)-5-(2-amino-6-(methylamino)-9H-purin-9-yl)-2-(chloromethyl)-4-fluoro-3-hydroxytetrahydrofuran-2-yl)methoxy)(phenoxy)phosphoryl)amino) propanoate] yielded an EC90 in data set [1] of more than 1600 nM. This molecule also had a Visual toxicity in data set [2] of more than 1.6.
Taken in the same sequence, the figures for `CNc1nc(OC)nc2c1ncn2[C@@H]1O[C@](C)(CO[P@@](=O)(N[C@@H](C)C(=O)OC(C)C)Oc2ccccc2)[C@@H](O)[C@H]1F` [AM, (S)-Isopropyl 2-(((S)-(((2R,3R,4R,5R)-5-(6-(methylamino)-2-methoxy-9H-purin-9-yl)-4-fluoro-3-hydroxy-2-methyltetrahydrofuran-2-yl)methoxy)(phenoxy)phosphoryl)amino) propanoate] were 1100 nM and more than 1.7.
Taken in the same sequence, the figures for `CNc1nc(OC)nc2c1ncn2[C@@H]1O[C@](CCl)(CO[P@@](=O)(N[C@@H](C)C(=O)OC(C)C)Oc2ccccc2)[C@@H](O)[C@H]1F` [AN, (S)-Isopropyl 2-(((S)-(((2R,3R,4R,5R)-5-(6-(methylamino)-2-methoxy-9H-purin-9-yl)-2-(chloromethyl)-4-fluoro-3-hydroxytetrahydrofuran-2-yl)methoxy)(phenoxy)phosphoryl)amino) propanoate] were more than 1600 nM and more than 1.6.
The matching figures for `CNc1nc(F)nc2c1ncn2[C@@H]1O[C@](C)(CO[P@@](=O)(N[C@@H](C)C(=O)OC(C)C)Oc2ccccc2)[C@@H](O)[C@@H]1F` [AP, (S)-Isopropyl 2-(((S)-(((2R,3R,4S,5R)-5-(6-(methylamino)-2-fluoro-9H-purin-9-yl)-4-fluoro-3-hydroxy-2-methyltetrahydrofuran-2-yl)methoxy)(phenoxy)phosphoryl)amino) propanoate]: 34 nM and more than 1.7.
`CNc1nc(Cl)nc2c1ncn2[C@@H]1O[C@](C)(CO[P@@](=O)(N[C@@H](C)C(=O)OC(C)C)Oc2ccccc2)[C@@H](O)[C@H]1F` [AR, (S)-Isopropyl 2-(((S)-(((2R,3R,4R,5R)-5-(6-(methylamino)-2-chloro-9H-purin-9-yl)-4-fluoro-3-hydroxy-2-methyltetrahydrofuran-2-yl)methoxy)(phenoxy)phosphoryl)amino) propanoate] had an EC90 in data set [1] of 1000 nM. Also, in data set [2], the Visual toxicity is on record as more than 1.6.
The matching figures for `CC(C)OC(=O)[C@H](C)N[P@](=O)(OC[C@@]1(C)O[C@@H](n2cnc3c(N(C)C4CC4)nc(N)nc32)[C@H](F)[C@@H]1O)Oc1ccccc1` [AS, (S)-Isopropyl 2-(((S)-(((2R,3R,4R,5R)-5-(2-amino-6-(cyclopropyl(methyl)amino)-9H-purin-9-yl)-4-fluoro-3-hydroxy-2-methyltetrahydrofuran-2-yl)methoxy)(phenoxy)phosphoryl)amino) propanoate]: 1500 nM and more than 1.6.
Take `CNc1nc(N)nc2c1ncn2[C@@H]1O[C@](CF)(CO[P@@](=O)(N[C@@H](C)C(=O)OC(C)C)Oc2ccccc2)[C@@H](O)[C@@H]1F` [AT, (S)-Isopropyl 2-(((S)-(((2R,3R,4S,5R)-5-(2-amino-6-(methylamino)-9H-purin-9-yl)-4-fluoro-2-(fluoromethyl)-3-hydroxytetrahydrofuran-2-yl)methoxy)(phenoxy)phosphoryl)amino) propanoate]: in data set [1], the EC90 amounted to 180 nM. For the same molecule, the Visual toxicity in data set [2] is on record as more than 1.6.
Taken in the same sequence, the figures for `CNc1nc(NC)c2ncn([C@@H]3O[C@](C)(CO[P@@](=O)(N[C@@H](C)C(=O)OC(C)C)Oc4ccccc4)[C@@H](O)[C@H]3F)c2n1` [AU, (S)-Isopropyl 2-(((S)-(((2R,3R,4R,5R)-5-(2,6-bis(methylamino)-9H-purin-9-yl)-4-fluoro-3-hydroxy-2-methyltetrahydrofuran-2-yl)methoxy)(phenoxy)phosphoryl)amino) propanoate] were more than 1700 nM and more than 1.7.
Taken in the same sequence, the figures for `CC(C)OC(=O)[C@H](C)N[P@](=O)(OC[C@@]1(C)O[C@@H](n2cnc3c(NC4CC4)nc(N)nc32)[C@H](F)[C@@H]1O)Oc1ccccc1` [AV, (S)-Isopropyl 2-(((S)-(((2R,3R,4R,5R)-5-(2-amino-6-(cyclopropylamino)-9H-purin-9-yl)-4-fluoro-3-hydroxy-2-methyltetrahydrofuran-2-yl)methoxy)(phenoxy)phosphoryl)amino) propanoate] were 99 nM and more than 1.6.
The matching figures for `CNc1nc(N)nc2c1ncn2[C@@H]1O[C@](C)(CO[P@@](=O)(N[C@@H](C)C(=O)OC(C)C)Oc2ccccc2)[C@@H](O)[C@H]1F` [Compound AC]: 74 nM and more than 1.4.

Values taken from patent publication US10202412B2, “β-D-2′-deoxy-2′-substituted-4′-substituted-2-substituted-N6-substituted-6-aminopurinenucleotides for the treatment of paramyxovirus and orthomyxovirus infections” (Atea Pharmaceuticals, Inc., priority 2016, dated 2019).
